Experimental data as given in PMC7004140, “In vitro hepatotoxicity of Petasites hybridus extract (Ze 339) depends on the concentration, the cytochrome activity of the cell system, and the species used” (Phytotherapy Research, 2019).

Experiments:
CYP2C8 (human) = target: T1, CYP2C8 (human) (Homo sapiens, UniProt P10632); test: Metabolism by isolated human CYP2C8; assay type: in vitro ADME; details: petasins 20 μM, 60 min
T1 construct: purchased BD Gentest (Switzerland); host or cells: baculovirus expression system
T1 sequence (P10632 1-490): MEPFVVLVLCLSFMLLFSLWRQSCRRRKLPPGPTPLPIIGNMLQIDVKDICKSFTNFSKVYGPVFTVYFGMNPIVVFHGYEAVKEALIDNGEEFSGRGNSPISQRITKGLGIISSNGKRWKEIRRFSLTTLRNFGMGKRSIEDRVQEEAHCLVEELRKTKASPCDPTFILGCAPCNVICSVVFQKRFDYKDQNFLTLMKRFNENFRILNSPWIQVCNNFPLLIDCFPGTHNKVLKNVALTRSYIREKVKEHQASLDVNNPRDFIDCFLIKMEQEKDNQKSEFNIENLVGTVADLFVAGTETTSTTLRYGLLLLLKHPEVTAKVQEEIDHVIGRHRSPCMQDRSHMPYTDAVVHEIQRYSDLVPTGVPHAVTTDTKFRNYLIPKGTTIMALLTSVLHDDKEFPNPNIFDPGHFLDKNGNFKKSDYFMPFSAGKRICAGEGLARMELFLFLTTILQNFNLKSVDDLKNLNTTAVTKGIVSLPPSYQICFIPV
From the text: (§1) The metabolism of petasin, isopetasin, and neopetasin was investigated using three different S9 fractions originating from three different species (isolated from rat, dog, and human liver homogenates containing cytochrome P450 isoforms) and isolated cytochromes of two different species (human and rat; rat analogues of the respective human cytochromes were used). For the expression of the different cytochromes, a baculovirus expression system was used according to supplier's manual. The S9 fractions or respectively single P450 cytochromes were used to mimic the liver metabolism by in vitro incubation.
(§2) The assay was carried out in triplicate in 1.5 ml glass vials with a final concentration of 20 μM of petasin, isopetasin, and neopetasin. The incubation was performed in a 37°C warm water bath. S9 fractions were thawed slowly on ice. Four different approaches were pursued by testing: (a) petasin, neopetasin, and isopetasin before (0 min) and after 60 min incubations with S9 fraction; (b) petasin, neopetasin, and isopetasin without S9 fraction after 60 min incubation; (c) vehicle as negative controls; and (d) cofactors of S9 fraction after 60‐min incubation.
(§3) A mixture of NADPH regeneration systems A (20‐fold) and B (100‐fold), phosphate buffer, and H2O was added, preincubated at 37°C, and shaken gently for 5 min. Afterwards, the recommended amount between 10 and 40 pmol/ml of enzyme or enzyme mixture was added according to manufacturer's instruction and incubated for further 60 min at 37°C and gently shaken. Afterwards, the reactions were stopped by addition of acetonitrile (400 μl). For the control sample, acetonitrile was added at 0 min incubation. The samples were centrifuged for 3 min at 10,000 × g. The supernatant was transferred to high‐performance liquid chromatography vials and analyzed by ultra‐performance liquid chromatography mass spectrometry (UPLC/MS). The UPLC analysis was performed with an UPLC Acquity H Class from Waters (Waters Corporation, Switzerland) including a quaternary high‐pressure gradient pump, an automatic sample injector, and a column thermostat. […]

HepaRG cells = test: WST-1 metabolic activity (cytotoxicity) in HepaRG cells; assay type: cell-based, human; details: 250 μM, 4 hr
Protocol: HepG2 and H‐4‐II‐E cells were differentiated for 24 hr. HepaRG cells were directly seeded in precoated 96‐well microtiter plates and were incubated in William's medium with general purpose supplements according to manufacturer's manual until adherence. All cells were treated with Ze 339 (up to 100 μg/ml) or petasin, isopetasin, neopetasin, petasol, isopetasol, petasin mixture, fatty acid mixture, and reconstituted extracts (up to 250 μM) for 4 hr.
In the three cell lines, cytotoxicity was defined as a decrease in metabolic activity of ≥20% in the WST‐1 assay. At the end of the experiment, 10 μl WST‐1 reagent was added to each well. Plates were then incubated for 2 hr to allow for the reduction of WST‐1 reagent. Absorbance was measured using a microplate absorbance reader (Infinite M 200, Tecan Trading Ltd., Switzerland) at 450 nm, reference wavelength of 620 nm. Due to some matrix effect, the lowest concentration (0.02 μg/ml for Ze 339 and 3.9 μM for single constituents and mixtures) of each substance tested was defined as 100% metabolic activity. Results were expressed as percentage of the control metabolic activity, and data were presented as mean values ± SEM (n = 3–6).
Concentration‐response analysis was done using the sigmoidal Hill equation: E(t) = E0 − Emax × C(t)^N/(IC50 ^N + C(t)^N), where E is the effect at time t, E0 the effect at baseline (time = 0), IC50 the concentration yielding 50% of the maximal effect (Emax), and N denotes the sigmoidicity coefficient (Origin 2017 Software). For statistical analysis, analysis of variance with Dunnett's multicomparison test was used to correct for multiplicity of testing (IBM SPSS Statistics software, version 25, IBM Corp., USA). The level of significance was ^* p < .05, ^** p < .01 and ^*** p < .001; NS = no significance.

CYP2C6 (rat) = target: T2, CYP2C6 (rat) (Rattus norvegicus, UniProt P05178); test: Metabolism by isolated rat CYP2C6; assay type: in vitro ADME; details: petasins 20 μM, 60 min
T2 construct: purchased BD Gentest (Switzerland); host or cells: baculovirus expression system
T2 sequence (P05178 1-490): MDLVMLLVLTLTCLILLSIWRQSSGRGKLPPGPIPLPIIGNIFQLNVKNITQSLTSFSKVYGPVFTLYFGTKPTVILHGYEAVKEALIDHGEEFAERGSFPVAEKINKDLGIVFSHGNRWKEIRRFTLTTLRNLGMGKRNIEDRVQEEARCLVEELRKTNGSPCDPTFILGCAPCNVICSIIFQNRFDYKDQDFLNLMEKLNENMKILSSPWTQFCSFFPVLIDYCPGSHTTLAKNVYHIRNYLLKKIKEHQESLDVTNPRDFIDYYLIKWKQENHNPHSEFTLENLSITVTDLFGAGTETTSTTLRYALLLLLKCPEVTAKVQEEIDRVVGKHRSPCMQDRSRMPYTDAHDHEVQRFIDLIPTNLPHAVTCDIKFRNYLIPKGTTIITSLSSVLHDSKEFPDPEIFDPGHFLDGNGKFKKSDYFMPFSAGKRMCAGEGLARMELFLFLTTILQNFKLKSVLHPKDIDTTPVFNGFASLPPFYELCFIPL
From the text: as §1, §2, §3

| SMILES | extent of metabolism by CYP2C8 (human) (CYP2C8 (human)) | metabolic activity (HepaRG cells) | extent of metabolism by CYP2C6 (rat) (CYP2C6 (rat)) |
| --- | --- | --- | --- |
| C=C(C)[C@H]1C[C@@]2(C)C(=CC1=O)CC[C@@H](OC(=O)/C(C)=C\C)[C@@H]2C [neopetasin] | 71% | 28.9% | 72% |
| C/C=C(/C)C(=O)O[C@@H]1CCC2=CC(=O)C(=C(C)C)C[C@]2(C)[C@H]1C [isopetasin] | 44% | 73% | 75% |
| C=C(C)[C@@H]1C[C@@]2(C)C(=CC1=O)CC[C@@H](OC(=O)/C(C)=C\C)[C@@H]2C [petasin] | 54% | 37.7% | 94% |
